Several values for one entry are separate records, joined by “and”; a condition that tells them apart may be missing. Identical values can stand only once.
Experiments:
[1] = test system: Canidae; settings: oral, Dog Other
[2] = test system: Canidae; settings: oral, M/F, Dog Other
[3] = test system: Canidae; settings: oral, Beagle
[4] = test system: Mus musculus; settings: chronic; duration: 103 weeks; oral; gavage; M/F; B6C3F1; hepatic
[5] = test system: Rattus norvegicus; settings: subchronic; duration: 90 days; oral; diet; F; other
[6] = test system: Rattus norvegicus; settings: chronic; duration: 2 years; oral; gavage; M/F; kidney pathology
[7] = test system: Rattus norvegicus; settings: oral; for NOEL / LOEL: Hershberger, gavage
[8] = test system: Rattus norvegicus; assay: LD0; higher = less toxic; settings: acute, oral, gavage
[9] = test system: Oryctolagus sp.; settings: acute; dermal; occlusive; New Zealand
[10] = test system: Mus musculus; settings: acute; injection; Intraperitoneal
[11] = test system: Rattus norvegicus; settings: chronic; duration: 104 weeks; oral; diet; Liver: Increased weight
[12] = chronic, duration: 2 years, diet, increased hemosiderin deposition, serum alkaline phosphatase, and liver weight (females)
[13] = chronic, Decreased body weight gain, altered serum chemistry parameters (decreased serum cholesterol, total protein, and serum albumin and globulin …
[14] = chronic, duration: 2 years, diet, increased serum alkaline phosphatase and liver weight, and hepatic lesions
[15] = duration: 7 days, Sprague-Dawley, active + Antiandrogenic + anti-androgenic + reduced SV and caudal epididymal wt / PPS delayed
[16] = duration: 10 days, Wistar, active + Antiandrogenic + anti-androgenic + reduced SV and caudal epididymal wt / PPS delayed
[17] = chronic, reduced erythrocyte counts
[18] = duration: 10 days, Sprague-Dawley, active + Negative + Antiandrogenic + anti-androgenic + significant increase in liver wt at 100 / decrease in AST wt and serum Testosterone …
[19] = duration: 9 months, capsule, M/F, Decreased bodyweights, mortality, prostatic malfunction, foci of softening in the brainstem, & testicular atrophy
[20] = chronic, duration: 12 months, diet, increase in methemoglobin + Increased liver weights
[21] = duration: 10 days, Sprague-Dawley, active + Negative + Antiandrogenic + anti-androgenic + DP and LABC decreased in high dose

In the case of `CC(C)N(C(=O)SCC(Cl)=C(Cl)Cl)C(C)C` [Tri-allate], the NOAEL ([1]; chronic, duration: 24 months, diet, Liver: Effects + Spleen: Effects) is reported as 1.27 mg/kg-day, the LOAEL [2, 12] is reported as 4.25 mg/kg-day and the NOAEL [2, 12] is reported as 1.27 mg/kg-day.

`CO/N=C1\C[C@]2(C[C@@H]3C[C@@H](C/C=C(\C)C[C@@H](C)/C=C/C=C4\CO[C@@H]5[C@H](O)C(C)=C[C@@H](C(=O)O3)[C@]45O)O2)O[C@H](/C(C)=C/C(C)C)[C@H]1C` [Moxidectin] showed an NOEL ([3]; subchronic, duration: 90 days, diet, M/F, Decreased bodyweight & feed consumption) of 0.3 mg/kg-day.

`CC1=CC(=O)CC(C)(C)C1` [Isophorone] gave an NOEL ([1]; subchronic, duration: 90 days, capsule, Kidney: Lesions) of 150 mg/kg-day, an LOAEL [4] of 179 mg/kg-day and an NOAEL [5] of 312 mg/kg-day. The NOEL ([2]; subchronic, duration: 90 days, diet, no effects) was 150 mg/kg-day, the LEL [6] was 250 mg/kg-day and the NOEL ([7]; duration: 10 days, Sprague-Dawley, inactive + Negative + Negative + neither + increase age at PPS, decrease wt of SV, decrease testosterone at 800 / NS increase in liver wt …) was 200 mg/kg-day.

With `O=C1c2ccccc2C(=O)N1SC(Cl)(Cl)Cl` [Folpet] the NOEL ([1]; chronic, duration: 1 years, capsule, Blood: Altered chemistry + Whole body: Altered weight gain) was 10 mg/kg-day, the LEL [2, 13] was 60 mg/kg-day and the NOEL [2, 13] was 10 mg/kg-day. The NOEL ([7]; duration: 10 days, Sprague-Dawley, inactive + Negative + Negative + neither + decrease in LABC and epididymis at 400 and 800 / decrease in liver and body wt (8% at 200 / 14…) was 200 mg/kg-day.

In the case of `CCC(CC)Nc1c([N+](=O)[O-])cc(C)c(C)c1[N+](=O)[O-]` [Pendimethalin], the NOEL ([1]; chronic, duration: 2 years, capsule, Liver: Effects) is reported as 12.5 mg/kg-day, the LEL [2, 14] is reported as 50 mg/kg-day and the NOEL [2, 14] is reported as 12.5 mg/kg-day. The LEL ([7]; uterotrophic, duration: 3 days, Active) was 300 mg/kg-day.

In the case of `CON(C)C(=O)Nc1ccc(Cl)c(Cl)c1` [Linuron], the LOAEL ([1]; chronic, duration: 2 years, diet, Blood: Hematological effects) is reported as 0.625 mg/kg-day, the LEL ([2]; chronic, duration: 2 years, diet, abnormal blood pigment) is reported as 0.625 mg/kg-day and the LOEL [7, 15] is reported as 40 mg/kg-day and 100 mg/kg-day. For the same compound, the NOEL [7, 15] was 20 mg/kg-day, the NOEL ([7]; duration: 10 days, Sprague-Dawley, inactive + Negative + anti-androgenic + reduced SV and caudal epididymal wt / PPS delayed) was 20 mg/kg-day and the LOEL [7, 16] was 40 mg/kg-day and 100 mg/kg-day. The NOEL [7, 16] was 20 mg/kg-day and 10 mg/kg-day, the NOEL ([7]; duration: 10 days, Wistar, inactive + Negative + anti-androgenic + reduced SV and caudal epididymal wt / PPS delayed) was 20 mg/kg-day and the NOEL ([7]; duration: 10 days, wistar, active + Antiandrogenic + anti-androgenic + reduced SV and caudal epididymal wt / PPS delayed) was 20 mg/kg-day and 30 mg/kg-day and 10 mg/kg-day.

`CCC(C#N)CC#N` (stereo not given) [2-Ethylbutanedinitrile] was tested, and the LD0 ([8]; Sprague-Dawley) was < 500 mg/kg.

In the case of `ON=C1CCCCC1` [Cyclohexanone oxime], the LD50 [9] is reported as > 5000 mg/kg, the LD50 [10] is reported as 250 mg/kg and the LD0 ([8]; Fischer 344) is reported as > 300 mg/kg.

For `CCCCN(CC)c1c([N+](=O)[O-])cc(C(F)(F)F)cc1[N+](=O)[O-]` [Benfluralin], the NOAEL ([1]; chronic, duration: 1 years, diet, Erythrocytes: Decreased count) was 25 mg/kg-day, the LOAEL [2, 17] was 125 mg/kg-day and the NOAEL [2, 17] was 25 mg/kg-day. For the same compound, the LOEL [7, 18] was 400 mg/kg-day and 750 mg/kg-day and the NOEL [7, 18] was 100 mg/kg-day and 250 mg/kg-day.

`Cl.c1ccc([C@H]2CN3CCSC3=N2)cc1` [Levamisole hydrochloride] gave an LOEL ([3]; chronic, duration: 14 months, capsule, Re-emergence of haemolytic anaemia) of 1.25 mg/kg-day and an LOEL ([3]; immunotoxicology, duration: 14 months, capsule, Re-emergence of haemolytic anaemia) of 1.25 mg/kg-day.

For `CC(COc1ccc(C(C)(C)C)cc1)OS(=O)OCCCl` (stereo not given) [Aramite], the NOAEL ([1]; chronic, duration: 52 weeks, diet, Liver: Degeneration) was 10 mg/kg-day and the NOAEL [11] was 7.8 mg/kg-day.

`CCNc1nc(Cl)nc(NC(C)(C)C#N)n1` [Cyanazine] showed an NOEL ([1]; chronic, duration: 1 years, diet, Blood: Altered clinical chemistry parameters + Blood: Increased platelet count + Whole body: Decreased weight) of 0.625 mg/kg-day.

`CC[C@@H](C(=O)O)[C@@H]1O[C@@H]([C@@H](C)[C@H](O)[C@H](C)C(=O)[C@H](CC)[C@H]2O[C@]3(C=C[C@@H](O)[C@]4(CC[C@@](C)([C@H]5CC[C@](O)(CC)[C@H](C)O5)O4)O3)[C@H](C)C[C@@H]2C)[C@@H](C)C[C@@H]1C` [Narasin] showed an NOAEL ([3]; chronic, duration: 1 years, capsule, M/F, Minimal to slight peripheral nerve changes & focal skeletal muscle degeneration) of 0.5 mg/kg-day.

`N=C(N)c1ccc(N=NNc2ccc(C(=N)N)cc2)cc1` [Diminazene] showed an LOEL [3, 19] of 60 mg/kg-day and an NOEL [3, 19] of 20 mg/kg-day.

`CCCN(CCC)c1c([N+](=O)[O-])cc(C(F)(F)F)cc1[N+](=O)[O-]` [Trifluralin] gave an NOEL ([1]; chronic, duration: 12 months, diet, Blood: Methemoglobinemia + Liver: Increased weight) of 0.75 mg/kg-day, an LEL [2, 20] of 3.75 mg/kg-day and an NOEL [2, 20] of 0.75 mg/kg-day. For the same compound, the LOEL [7, 21] was 250 mg/kg-day and 450 mg/kg-day and the NOEL [7, 21] was 75 mg/kg-day and 150 mg/kg-day.

With `CCC(=O)O.CCC(=O)O.O=C(Nc1cccc(C2=NCCN2)c1)Nc1cccc(C2=NCCN2)c1` [Imidocarb dipropionate] the NOEL ([3]; subchronic, duration: 90 days, capsule, M/F, Transient reducting in food intake & histopathology in the liver) was 5 mg/kg-day.

For `C#CC(C)(C)NC(=O)c1cc(Cl)cc(Cl)c1` [Propyzamide], the NOEL ([1]; chronic, duration: 2 years, diet, None Observed) was 7.5 mg/kg-day, the NOEL ([2]; chronic, duration: 2 years, diet, no effects) was 7.5 mg/kg-day and the NOEL ([7]; duration: 10 days, Sprague-Dawley, active + Negative + Antiandrogenic + anti-androgenic + two studies / first one doses were high but effects observed on AST wt and delayed …) was 40 mg/kg-day.

Compound `COC(=O)Nc1nc2ccc(C(=O)c3ccc(F)cc3)cc2[nH]1` [Flubendazole] has an NOEL ([3]; duration: 3 months, capsule, M/F, Atrophic change in prostate) of 2.5 mg/kg-day and an NOEL ([3]; subchronic, duration: 3 months, capsule, M/F, Atrophic change in prostate) of 2.5 mg/kg-day.

— EPA's ToxValDB 9.5
